Assay results published in the supplement of paper PMC10307832.

Columns and labels:
Test in all cases: relative viability (nuclei count vs DMSO), 5 days (fraction); higher = more cells survive
[1] = compound: CCc1c2c(nc3ccc(OC(=O)N4CCC(N5CCCCC5)CC4)cc13)-c1cc3c(c(=O)n1C2)COC(=O)[C@]3(O)CC [Irinotecan] + COc1cc2c(Oc3ccc(NC(=O)C4(C(=O)Nc5ccc(F)cc5)CC4)cc3F)ccnc2cc1OCCCN1CCOCC1 [Foretinib] (partner 0.25 µM)
Outline: (§1)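 Relative viability was taken as the ratio of nuclei in treated wells to nuclei in vehicle wells. Lung cancer cell lines in 1536-well plates received compounds by pin tool one day after seeding, either one drug alone or a fixed anchor-drug dose plus five library-drug doses (not always all listed) in √10 steps. Nuclei were counted on 4× images after 5 days of treatment, and values are medians of duplicate plates.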

[2] = compound: CCc1c2c(nc3ccc(OC(=O)N4CCC(N5CCCCC5)CC4)cc13)-c1cc3c(c(=O)n1C2)COC(=O)[C@]3(O)CC [Irinotecan] + Nc1nc2[nH]cc(CCc3ccc(C(=O)N[C@@H](CCC(=O)O)C(=O)O)cc3)c2c(=O)[nH]1 [Pemetrexed] (partner 0.2 µM)
Outline: as §1

[3] = compound: Cn1cc(-c2cnc3ccc4ccc(CS(=O)(=O)NCc5ccccn5)cc4c(=O)c3c2)cn1 [MK-8033] + Cc1nc(Nc2ncc(C(=O)Nc3c(C)cccc3Cl)s2)cc(N2CCN(CCO)CC2)n1 [Dasatinib] (partner 0.075 µM)
Outline: as §1

[4] = compound: Cn1cc(-c2cnc3ccc4ccc(CS(=O)(=O)NCc5ccccn5)cc4c(=O)c3c2)cn1 [MK-8033] + Nc1nc2[nH]cc(CCc3ccc(C(=O)N[C@@H](CCC(=O)O)C(=O)O)cc3)c2c(=O)[nH]1 [Pemetrexed] (partner 0.2 µM)
Outline: as §1

H3255
relative viability ([1]; first compound 0.6325 µM): 0.398 | relative viability ([1]; first compound 2 µM): 0.558 | relative viability ([1]; first compound 6.325 µM): 0.36 | relative viability ([1]; first compound 20 µM): 0.305 | relative viability ([2]; first compound 0.6325 µM): 0.529 | relative viability ([2]; first compound 2 µM): 0.603 | relative viability ([2]; first compound 6.325 µM): 0.393 | relative viability ([2]; first compound 20 µM): 0.37 | relative viability ([3]; first compound 0.02 µM): 0.366 | relative viability ([3]; first compound 0.06325 µM): 0.347 | relative viability ([3]; first compound 0.2 µM): 0.299 | relative viability ([3]; first compound 0.6325 µM): 0.319 | relative viability ([3]; first compound 2 µM): 0.438 | relative viability ([4]; first compound 0.02 µM): 0.56 | relative viability ([4]; first compound 0.06325 µM): 0.49 | relative viability ([4]; first compound 0.2 µM): 0.571 | relative viability ([4]; first compound 0.6325 µM): 0.582 | relative viability ([4]; first compound 2 µM): 0.565

HARA
relative viability ([1]; first compound 0.6325 µM): 0.315 | relative viability ([1]; first compound 2 µM): 0.174 | relative viability ([1]; first compound 6.325 µM): 0.116 | relative viability ([1]; first compound 20 µM): 0.127 | relative viability ([2]; first compound 0.6325 µM): 0.211 | relative viability ([2]; first compound 2 µM): 0.294 | relative viability ([2]; first compound 6.325 µM): 0.182 | relative viability ([2]; first compound 20 µM): 0.192 | relative viability ([3]; first compound 0.02 µM): 0.28 | relative viability ([3]; first compound 0.06325 µM): 0.255 | relative viability ([3]; first compound 0.2 µM): 0.223 | relative viability ([3]; first compound 0.6325 µM): 0.188 | relative viability ([3]; first compound 2 µM): 0.258 | relative viability ([4]; first compound 0.02 µM): 0.289 | relative viability ([4]; first compound 0.06325 µM): 0.212 | relative viability ([4]; first compound 0.2 µM): 0.227 | relative viability ([4]; first compound 0.6325 µM): 0.264 | relative viability ([4]; first compound 2 µM): 0.229

HCC-15
relative viability ([1]; first compound 2 µM): 0.695 | relative viability ([1]; first compound 6.325 µM): 0.23 | relative viability ([1]; first compound 20 µM): 0.161 | relative viability ([2]; first compound 0.6325 µM): 0.18 | relative viability ([2]; first compound 2 µM): 0.188 | relative viability ([2]; first compound 6.325 µM): 0.207 | relative viability ([2]; first compound 20 µM): 0.189 | relative viability ([3]; first compound 0.02 µM): 0.639 | relative viability ([3]; first compound 0.06325 µM): 0.541 | relative viability ([3]; first compound 0.2 µM): 0.542 | relative viability ([3]; first compound 0.6325 µM): 0.6 | relative viability ([3]; first compound 2 µM): 0.616 | relative viability ([4]; first compound 0.02 µM): 0.222 | relative viability ([4]; first compound 0.06325 µM): 0.221 | relative viability ([4]; first compound 0.2 µM): 0.236 | relative viability ([4]; first compound 0.6325 µM): 0.237 | relative viability ([4]; first compound 2 µM): 0.194

HCC-44
relative viability ([2]; first compound 0.6325 µM): 0.617 | relative viability ([2]; first compound 2 µM): 0.721 | relative viability ([2]; first compound 6.325 µM): 0.549 | relative viability ([2]; first compound 20 µM): 0.488 | relative viability ([4]; first compound 0.02 µM): 0.672 | relative viability ([4]; first compound 0.06325 µM): 0.695 | relative viability ([4]; first compound 0.2 µM): 0.681 | relative viability ([4]; first compound 0.6325 µM): 0.691 | relative viability ([4]; first compound 2 µM): 0.603
